From patent US6680058B1, “Compositions and methods for contraception in or sterilization of mammals” (Board of Supervisors of Louisiana State University and …, priority 1997, dated 2004)

Tests used:
[1] = test system: granulosa cells; assay: Steroid hormone production by granulosa cells (data not shown); assay type: cell-based, bovine
Text: Stimulation of target cell hormone production was not required for cell lysis.

[2] = test system: sexually mature, Sprague-Dawley female rats; assay: Sexually mature Sprague-Dawley female rats, single intravenous treatment, necropsy 48 or 96 hours after treatment, H&E and PAS stain (Examples 15-22); assay type: in vivo, rat; conditions: 334 μg in 200 μL saline (1.35 mM) i.v.; sacrificed 48 or 96 hours after injection
Protocol: Eight sexually mature, Sprague-Dawley female rats were randomly assigned to one of eight treatments. Each group of rats received a single treatment intravenously, as described below. Rats were sacrificed and necropsied either 48 or 96 hours after treatment. The ovaries, uterus, pancreas, liver, spleen, lungs, heart, thyroid, and adrenal glands were fixed in 10% buffered formalin; sectioned; and stained with H&E (hematoxylin and eosin) stain; except that the pituitary glands were stained with PAS (periodic acid-Schiff) stain with no counter-stain. The treatments were selected so that each animal received an equimolar amount of the compound with which it was treated.

[3] = biological target: T1, GnRH receptor (Homo sapiens, UniProt P30968); conditions: reported; see U.S. Pat. No. 5,488,036; cited from earlier work
T1 sequence (P30968 1-328): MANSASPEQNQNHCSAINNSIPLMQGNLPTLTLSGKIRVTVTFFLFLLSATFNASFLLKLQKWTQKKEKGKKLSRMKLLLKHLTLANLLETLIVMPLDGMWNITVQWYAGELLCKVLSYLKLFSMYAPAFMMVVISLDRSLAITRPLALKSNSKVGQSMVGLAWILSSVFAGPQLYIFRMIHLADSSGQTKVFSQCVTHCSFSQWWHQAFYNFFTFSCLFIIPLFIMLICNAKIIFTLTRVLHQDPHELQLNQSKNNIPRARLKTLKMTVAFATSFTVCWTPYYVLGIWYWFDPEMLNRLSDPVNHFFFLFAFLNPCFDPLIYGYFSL

[4] = biological target: T2, GnRH receptor (Rattus norvegicus, UniProt P30969); assay: Displacement of radiolabelled monoiodinated-GnRH from rat pituitary membranes (Example 24); assay type: binding
T2 construct: specifically displaced radiolabelled monoiodinated-GnRH from rat pituitary membranes; from tissue; host or cells: rat pituitary membranes
T2 sequence (P30969 1-327): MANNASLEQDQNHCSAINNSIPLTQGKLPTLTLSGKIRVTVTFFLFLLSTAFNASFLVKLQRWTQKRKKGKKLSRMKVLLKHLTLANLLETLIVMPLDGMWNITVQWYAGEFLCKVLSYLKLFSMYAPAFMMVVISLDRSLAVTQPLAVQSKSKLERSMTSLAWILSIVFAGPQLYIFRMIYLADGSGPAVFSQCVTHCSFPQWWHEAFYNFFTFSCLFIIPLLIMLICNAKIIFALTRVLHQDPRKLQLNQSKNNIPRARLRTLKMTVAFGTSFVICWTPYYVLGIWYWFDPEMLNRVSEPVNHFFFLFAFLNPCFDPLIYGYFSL
Text: We also synthesized D-Lys^6GnRH (SEQ. ID NO. 13), so that hecate could be conjugated to the D-Lys^6, a position that could minimize interference with binding of the GnRH domain to the GnRH receptor. These synthetic peptides specifically displaced radiolabelled monoiodinated-GnRH from rat pituitary membranes.

[5] = test system: sexually mature, mixed breed, female rats; assay: Sexually mature female rats, double intravenous treatment, necropsy two weeks after treatment (Examples 9-14); assay type: in vivo, rat; conditions: Treatment 12: hecate 337 μg i.v., repeated after 24 hours; two weeks
Text: Eighteen sexually mature, mixed breed, female rats were randomly assigned to one of six groups containing three rats each. Each group of rats received a double treatment intravenously, as described below. Two weeks after the treatment, the rats were sacrificed and necropsied. The reproductive and endocrine organs were sectioned, weighed, and examined histologically.

[6] = test system: pituitary basophilic (gonadotropic) cells; assay: Adult female rat pituitary gland sections in tissue culture, histology ten hours after treatment (Examples 1-6); assay type: cell-based; conditions: 50 μM hecate in the medium; ten hours
Protocol: The pituitary gland of an adult female rat was harvested and divided into six sections of approximately equal size. One section was placed in each of six wells containing tissue culture medium at 37° C. A different treatment was applied to each well, as described below. Ten hours after treatment, the tissue from each well was fixed, and the histology of each was examined microscopically.

[7] = test system: bovine granulosa cells; assay: In vitro lysis of bovine granulosa cells (Examples 33-34); assay type: cell-based; conditions: hecate alone; compared with small luteal cells
Text: We also studied in vitro lysis of bovine granulosa cells with GnRH-hecate conjugate and with hecate-bLH conjugate. Granulosa cells were isolated from bovine pre-ovulatory follicles. (Granulosa cells are hormonally active cells with numerous LH receptors.) Our experiments with granulosa cells were otherwise generally similar to those described above for Examples 25-32.

[8] = test system: bovine small luteal cells; assay: In vitro lysis of bovine small luteal cells, Trypan Blue exclusion and release of lactic dehydrogenase (Examples 25-32); assay type: cell-based; conditions: 22 hr. incubation; for killing of small luteal cells: Trypan Blue exclusion
Protocol: We studied in vitro lysis of bovine luteal cells with GnRH-hecate conjugate and with hecate-bLH conjugate (SEQ. ID NO. 12). (The bLH component of the conjugate is a 15-mer fragment of the beta chain of luteinizing hormone, SEQ. ID NO. 11). Small luteal cells were collected from cattle corpora lutea post-slaughter.
Small luteal cells in culture were incubated with one of the following treatments for 22 hours, and were then examined for viability using Trypan Blue exclusion and release of lactic dehydrogenase.

[9] = test system: cells of the flat oyster Ostrea edulis; conditions: at the doses that reduced parasite viability; Morvan et al. 1994; cited from earlier work
[10] = test system: Bonamia ostreae; conditions: in vitro; Morvan et al. 1994; cited from earlier work

## 15-mer fragment of the bLH subunit: 15-mer fragment of the beta chain of luteinizing hormone, SEQ. ID NO. 11 (SYAVALSCQCALCRR)
[1]
  production of steroid hormones (stimulus-coupled response): did not initiate the production of steroid hormones

## CC(C)C[C@H](NC(=O)CNC(=O)[C@H](Cc1ccc(O)cc1)NC(=O)[C@H](CO)NC(=O)[C@H](Cc1c[nH]c2ccccc12)NC(=O)[C@H](Cc1cnc[nH]1)NC(=O)[C@@H]1CCC(=O)N1)C(=O)N[C@@H](CCCNC(=N)N)C(=O)N1CCC[C@H]1C(=O)NCC(N)=O [GnRH, gonadotropin-releasing hormone, reference compound]
[2]
  gross lesions in the organs: No gross lesions

## CCNC(=O)[C@@H]1CCCN1C(=O)[C@H](CCCNC(=N)N)NC(=O)[C@H](CC(C)C)NC(=O)[C@@H](COC(C)(C)C)NC(=O)[C@H](Cc1ccc(O)cc1)NC(=O)[C@H](CO)NC(=O)[C@H](Cc1c[nH]c2ccccc12)NC(=O)[C@H](Cc1cnc[nH]1)NC(=O)[C@@H]1CCC(=O)N1 [buserelin]
[3]
  binding affinity to the GnRH receptor compared with GnRH: greater binding affinity to the GnRH receptor than does GnRH itself

## CC(C)C[C@H](NC(=O)[C@@H](COC(C)(C)C)NC(=O)[C@H](Cc1ccc(O)cc1)NC(=O)[C@H](CO)NC(=O)[C@H](Cc1c[nH]c2ccccc12)NC(=O)[C@H](Cc1cnc[nH]1)NC(=O)[C@@H]1CCC(=O)N1)C(=O)N[C@@H](CCCNC(=N)N)C(=O)N1CCC[C@H]1C(=O)NNC(N)=O [goserelin]
[3]
  binding affinity to the GnRH receptor compared with GnRH: greater binding affinity to the GnRH receptor than does GnRH itself

## CCNC(=O)[C@@H]1CCCN1C(=O)[C@H](CCCNC(=N)N)NC(=O)[C@H](CC(C)C)NC(=O)[C@@H](CC(C)C)NC(=O)[C@H](Cc1ccc(O)cc1)NC(=O)[C@H](CO)NC(=O)[C@H](Cc1c[nH]c2ccccc12)NC(=O)[C@H](Cc1c[nH]cn1)NC(=O)[C@@H]1CCC(=O)N1 [leuprolide]
[3]
  binding affinity to the GnRH receptor compared with GnRH: greater binding affinity to the GnRH receptor than does GnRH itself

## D-Lys^6GnRH-hecate: hecate conjugated to the D-Lys^6 of D-Lys^6GnRH
[4]; as measured by cpm of radioactivity
  displacement of radiolabelled monoiodinated-GnRH, compared with native mammalian GnRH: comparable to (and actually slightly greater than) displacement by native mammalian GnRH

## D-Lys^6GnRH: GnRH analog with D-Lys at position 6, SEQ. ID NO. 13
[4]; molar basis over a 1000-fold concentration range (n=6), native GnRH = 100%
  specific displacement of the radiolabelled peptide relative to equimolar concentrations of GnRH: 187%±8%

## hecate: amphipathic lytic peptide, synthetic peptide analog of melittin, SEQ. ID NO. 2 (FALALKALKKALKKLKKALKKAL) [reference compound]
[5]
  ovarian function: normal ovarian function
[6]
  histology of pituitary tissue after treatment: appeared normal
[7]
  susceptibility of granulosa cells to killing: much more susceptible to killing by hecate alone than were the small luteal cells
[8]; 1 μM
  cell death of small luteal cells: did not differ significantly from negative control (media) or from bLH alone
[8]; 5 μM
  killing of small luteal cells: approximately 50%
[8]; 10 μM
  killing of small luteal cells: Significant killing

## magainin 1: antimicrobial peptide magainin 1 (GIGKFLHSAGKFGKAFVGEIMKS; Magainin-1; UniProt P11006 37-59, looked up)
[9]
  effect on cells of the flat oyster Ostrea edulis: did not affect
[10]
  viability of the parasite Bonamia ostreae: selectively reduce the viability
